± gives the standard deviation of the averaged measurements.
What was measured:
ABT-737 [1] = compound: T1, CN(C)CC[C@H](CSc1ccccc1)Nc1ccc(S(=O)(=O)NC(=O)c2ccc(N3CCN(Cc4ccccc4-c4ccc(Cl)cc4)CC3)cc2)cc1[N+](=O)[O-] [ABT-737]; assay: surviving fraction relative to DMSO-only wells; higher = less growth inhibition; settings: exposure time: 5 days
Method in brief: (§1)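 A line counted only if its three screens reached replicate Pearson r >0.7 and median Z' >0.3. Tumour cells in log phase were seeded at 250–500 per well in 384-well plates and, after 24 hours, kept in continuous contact with inhibitors at 0.5, 1, 5, 10, 50, 100, 500 and 1000 nM for five days. Surviving fraction was taken from CellTiter-Glo luminescence relative to the median of DMSO-only wells.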

FLAVOPIRIDOL [2] = compound: T2, CN1CC[C@H](c2c(O)cc(O)c3c(=O)cc(-c4ccccc4Cl)oc23)[C@H](O)C1 [FLAVOPIRIDOL]; assay: as above; settings: exposure time: 5 days
Method in brief: as §1

2-METHOXYESTRADIOL [3] = compound: T3, COc1cc2c(cc1O)CC[C@@H]1[C@@H]2CC[C@]2(C)[C@@H](O)CC[C@@H]12 [2-METHOXYESTRADIOL]; assay: as above; settings: exposure time: 5 days
Method in brief: as §1

LAPATINIB [4] = compound: T4, CS(=O)(=O)CCNCc1ccc(-c2ccc3ncnc(Nc4ccc(OCc5cccc(F)c5)c(Cl)c4)c3c2)o1 [LAPATINIB]; assay: as above; settings: exposure time: 5 days
Method in brief: as §1

DECITABINE [5] = compound: T5, Nc1ncn([C@H]2C[C@H](O)[C@@H](CO)O2)c(=O)n1 [DECITABINE]; assay: as above; settings: exposure time: 5 days
Method in brief: as §1

FLUOROURACIL [6] = compound: T6, O=c1[nH]cc(F)c(=O)[nH]1 [FLUOROURACIL]; assay: as above; settings: exposure time: 5 days
Method in brief: as §1

RESVERATROL [7] = compound: T7, Oc1ccc(/C=C/c2cc(O)cc(O)c2)cc1 [RESVERATROL]; assay: as above; settings: exposure time: 5 days
Method in brief: as §1

ABT-737 [8] = compound: T1, ABT-737; assay: area under dose-response curve of surviving fraction (unscaled, Aref=0) (surviving fraction x log10(nM)); higher = more resistant; settings: exposure time: 5 days; dose range 0.5-1000 nM
Method in brief: (§2)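 Surviving fractions were fitted by 3-parameter logistic regression in the drc R package to give dose-response survival curves. They came from tumour cell lines treated for five days with eight inhibitor concentrations from 0.5 to 1000 nM and read by CellTiter-Glo luminescence against DMSO-only wells. The area under the curve is the unscaled activity area. It was calculated over log10 dose with Aref = 0.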

FLAVOPIRIDOL [9] = compound: T2, FLAVOPIRIDOL; assay: as above; settings: exposure time: 5 days; dose range 0.5-1000 nM
Method in brief: as §2

2-METHOXYESTRADIOL [10] = compound: T3, 2-METHOXYESTRADIOL; assay: as above; settings: exposure time: 5 days; dose range 0.5-1000 nM
Method in brief: as §2

LAPATINIB [11] = compound: T4, LAPATINIB; assay: as above; settings: exposure time: 5 days; dose range 0.5-1000 nM
Method in brief: as §2

DECITABINE [12] = compound: T5, DECITABINE; assay: as above; settings: exposure time: 5 days; dose range 0.5-1000 nM
Method in brief: as §2

FLUOROURACIL [13] = compound: T6, FLUOROURACIL; assay: as above; settings: exposure time: 5 days; dose range 0.5-1000 nM
Method in brief: as §2

RESVERATROL [14] = compound: T7, RESVERATROL; assay: as above; settings: exposure time: 5 days; dose range 0.5-1000 nM
Method in brief: as §2

17-AAG = compound: C=CCNC1=C2C[C@@H](C)C[C@H](OC)[C@H](O)[C@@H](C)/C=C(\C)[C@H](OC(N)=O)[C@@H](OC)/C=C\C=C(/C)C(=O)NC(=CC1=O)C2=O [17-AAG]; assay: as above; settings: exposure time: 5 days; dose range 0.5-1000 nM
Method in brief: as §2

[15] = compound: CCN(CC)CCCCNc1ncc2cc(-c3cc(OC)cc(OC)c3)c(NC(=O)NC(C)(C)C)nc2n1; assay: as above; settings: exposure time: 5 days; dose range 0.5-1000 nM
Method in brief: as §2

SALINOMYCIN = compound: CC[C@@H](C(=O)[C@@H](C)[C@@H](O)[C@H](C)[C@@H]1O[C@@H]([C@@H](CC)C(=O)O)CC[C@@H]1C)[C@H]1O[C@]2(C=C[C@@H](O)[C@]3(CC[C@@](C)([C@H]4CC[C@](O)(CC)[C@H](C)O4)O3)O2)[C@H](C)C[C@@H]1C [SALINOMYCIN]; assay: as above; settings: exposure time: 5 days; dose range 0.5-1000 nM
Method in brief: as §2

NUTLIN3 = compound: COc1ccc(C2=N[C@@H](c3ccc(Cl)cc3)[C@@H](c3ccc(Cl)cc3)N2C(=O)N2CCNC(=O)C2)c(OC(C)C)c1 [NUTLIN3]; assay: as above; settings: exposure time: 5 days; dose range 0.5-1000 nM
Method in brief: as §2

DOXORUBICIN = compound: COc1cccc2c1C(=O)c1c(O)c3c(c(O)c1C2=O)C[C@@](O)(C(=O)CO)C[C@@H]3O[C@H]1C[C@H](N)[C@H](O)[C@H](C)O1 [DOXORUBICIN]; assay: as above; settings: exposure time: 5 days; dose range 0.5-1000 nM
Method in brief: as §2

VISMODEGIB = compound: CS(=O)(=O)c1ccc(C(=O)Nc2ccc(Cl)c(-c3ccccn3)c2)c(Cl)c1 [VISMODEGIB]; assay: as above; settings: exposure time: 5 days; dose range 0.5-1000 nM
Method in brief: as §2

Work on CCK81 LARGE INTESTINE yielded a surviving fraction (ABT-737 [1]; 0.5 nM) of 0.869 ± 0.15, a surviving fraction (ABT-737 [1]; 1 nM) of 0.887 ± 0.025 and a surviving fraction (ABT-737 [1]; 5 nM) of 0.83 ± 0.11. It also gave a surviving fraction (ABT-737 [1]; 10 nM) of 0.847 ± 0.077, a surviving fraction (ABT-737 [1]; 50 nM) of 0.859 ± 0.11 and a surviving fraction (ABT-737 [1]; 100 nM) of 0.724 ± 0.13. For the same test system, the surviving fraction (ABT-737 [1]; 500 nM) was 0.678 ± 0.071, the surviving fraction (ABT-737 [1]; 1000 nM) was 0.695 ± 0.053 and the surviving fraction (FLAVOPIRIDOL [2]; 0.5 nM) was 0.883 ± 0.13. For the same test system, the surviving fraction (FLAVOPIRIDOL [2]; 1 nM) was 0.817 ± 0.082, the surviving fraction (FLAVOPIRIDOL [2]; 5 nM) was 0.785 ± 0.15 and the surviving fraction (FLAVOPIRIDOL [2]; 10 nM) was 0.813 ± 0.1. For the same test system, the surviving fraction (FLAVOPIRIDOL [2]; 50 nM) was 0.416 ± 0.062, the surviving fraction (FLAVOPIRIDOL [2]; 100 nM) was 0.0273 ± 0.011 and the surviving fraction (FLAVOPIRIDOL [2]; 500 nM) was 0.0177 ± 0.0015. For the same test system, the surviving fraction (FLAVOPIRIDOL [2]; 1000 nM) was 0.0203 ± 0.00058, the surviving fraction (2-METHOXYESTRADIOL [3]; 0.5 nM) was 0.764 ± 0.17 and the surviving fraction (2-METHOXYESTRADIOL [3]; 1 nM) was 0.801 ± 0.13. The surviving fraction (2-METHOXYESTRADIOL [3]; 5 nM) was 0.773 ± 0.027, the surviving fraction (2-METHOXYESTRADIOL [3]; 10 nM) was 0.752 ± 0.059 and the surviving fraction (2-METHOXYESTRADIOL [3]; 50 nM) was 0.776 ± 0.076. The surviving fraction (2-METHOXYESTRADIOL [3]; 100 nM) was 0.779 ± 0.03, the surviving fraction (2-METHOXYESTRADIOL [3]; 500 nM) was 0.574 ± 0.076 and the surviving fraction (2-METHOXYESTRADIOL [3]; 1000 nM) was 0.249 ± 0.02. It also gave a surviving fraction (LAPATINIB [4]; 0.5 nM) of 0.728 ± 0.083, a surviving fraction (LAPATINIB [4]; 1 nM) of 0.751 ± 0.054 and a surviving fraction (LAPATINIB [4]; 5 nM) of 0.826 ± 0.17. The surviving fraction (LAPATINIB [4]; 10 nM) was 0.751 ± 0.074, the surviving fraction (LAPATINIB [4]; 50 nM) was 0.65 ± 0.16 and the surviving fraction (LAPATINIB [4]; 100 nM) was 0.536 ± 0.024. For the same test system, the surviving fraction (LAPATINIB [4]; 500 nM) was 0.082 ± 0.017, the surviving fraction (LAPATINIB [4]; 1000 nM) was 0.0653 ± 0.0081 and the surviving fraction (DECITABINE [5]; 0.5 nM) was 0.759 ± 0.099. The surviving fraction (DECITABINE [5]; 1 nM) was 0.761 ± 0.034, the surviving fraction (DECITABINE [5]; 5 nM) was 0.578 ± 0.11 and the surviving fraction (DECITABINE [5]; 10 nM) was 0.707 ± 0.12. For the same test system, the surviving fraction (DECITABINE [5]; 50 nM) was 0.367 ± 0.058, the surviving fraction (DECITABINE [5]; 100 nM) was 0.348 ± 0.035 and the surviving fraction (DECITABINE [5]; 500 nM) was 0.308 ± 0.035. It also gave a surviving fraction (DECITABINE [5]; 1000 nM) of 0.286 ± 0.094, a surviving fraction (FLUOROURACIL [6]; 0.5 nM) of 0.849 ± 0.12 and a surviving fraction (FLUOROURACIL [6]; 1 nM) of 0.804 ± 0.081. It also gave a surviving fraction (FLUOROURACIL [6]; 5 nM) of 0.764 ± 0.086, a surviving fraction (FLUOROURACIL [6]; 10 nM) of 0.835 ± 0.13 and a surviving fraction (FLUOROURACIL [6]; 50 nM) of 0.851 ± 0.079. For the same test system, the surviving fraction (FLUOROURACIL [6]; 100 nM) was 0.751 ± 0.075, the surviving fraction (FLUOROURACIL [6]; 500 nM) was 0.775 ± 0.042 and the surviving fraction (FLUOROURACIL [6]; 1000 nM) was 0.609 ± 0.084. The surviving fraction (RESVERATROL [7]; 0.5 nM) was 0.73 ± 0.017, the surviving fraction (RESVERATROL [7]; 1 nM) was 0.79 ± 0.13 and the surviving fraction (RESVERATROL [7]; 5 nM) was 0.71 ± 0.065. For the same test system, the surviving fraction (RESVERATROL [7]; 10 nM) was 0.724 ± 0.037, the surviving fraction (RESVERATROL [7]; 50 nM) was 0.671 ± 0.058 and the surviving fraction (RESVERATROL [7]; 100 nM) was 0.793 ± 0.11. For the same test system, the surviving fraction (RESVERATROL [7]; 500 nM) was 0.844 ± 0.085, the surviving fraction (RESVERATROL [7]; 1000 nM) was 0.728 ± 0.039 and the “area under dose-response curve” value (ABT-737 [8]) was 2.64. For the same test system, the “area under dose-response curve” value (FLAVOPIRIDOL [9]) was 1.69, the “area under dose-response curve” value (2-METHOXYESTRADIOL [10]) was 2.32 and the “area under dose-response curve” value (LAPATINIB [11]) was 1.95. For the same test system, the “area under dose-response curve” value (DECITABINE [12]) was 1.69, the “area under dose-response curve” value (FLUOROURACIL [13]) was 2.58 and the “area under dose-response curve” value (RESVERATROL [14]) was 2.47.
HS57T LUNG was tested, and the “area under dose-response curve” value (17-AAG) was 1.35, the “area under dose-response curve” value [15] was 2.66 and the “area under dose-response curve” value (SALINOMYCIN) was 2.57. For the same test system, the “area under dose-response curve” value (ABT-737 [8]) was 3.45, the “area under dose-response curve” value (FLAVOPIRIDOL [9]) was 2.07 and the “area under dose-response curve” value (2-METHOXYESTRADIOL [10]) was 2.78. The “area under dose-response curve” value (NUTLIN3) was 3.4, the “area under dose-response curve” value (DOXORUBICIN) was 1.22 and the “area under dose-response curve” value (LAPATINIB [11]) was 3.42. The “area under dose-response curve” value (VISMODEGIB) was 3.29, the “area under dose-response curve” value (DECITABINE [12]) was 3.05 and the “area under dose-response curve” value (FLUOROURACIL [13]) was 3.24. For the same test system, the “area under dose-response curve” value (RESVERATROL [14]) was 3.35.

Reference: the supplement of paper PMC6045584
